Test results published in ChEMBL document CHEMBL1201862, “PubChem BioAssay data set” (2004).
Calls of active or inactive are those of the source.

Legend:
[1] = viability loss in HeLa cells – cytotoxicity control for MgcRacGAP inhibitor project, dose response (AID 624300); format: functional
[2] = target: Matrix metalloproteinase-14 (Homo sapiens, UniProt P50281); experiment: Dose Response confirmation of uHTS hits for a small molecule inhibitors of MT1-MMP activation in a fluorescence assay set 1.; format: functional
[3] = target: T1, Rac GTPase-activating protein 1 (Homo sapiens, UniProt Q9H0H5); experiment: blockers of MgcRacGAP-driven Rac1 GTP hydrolysis – biochemical, ADP Hunter fluorescence, primary and confirmatory, confirmation (AID 624330); format: functional
T1 sequence (Q9H0H5 whole entry): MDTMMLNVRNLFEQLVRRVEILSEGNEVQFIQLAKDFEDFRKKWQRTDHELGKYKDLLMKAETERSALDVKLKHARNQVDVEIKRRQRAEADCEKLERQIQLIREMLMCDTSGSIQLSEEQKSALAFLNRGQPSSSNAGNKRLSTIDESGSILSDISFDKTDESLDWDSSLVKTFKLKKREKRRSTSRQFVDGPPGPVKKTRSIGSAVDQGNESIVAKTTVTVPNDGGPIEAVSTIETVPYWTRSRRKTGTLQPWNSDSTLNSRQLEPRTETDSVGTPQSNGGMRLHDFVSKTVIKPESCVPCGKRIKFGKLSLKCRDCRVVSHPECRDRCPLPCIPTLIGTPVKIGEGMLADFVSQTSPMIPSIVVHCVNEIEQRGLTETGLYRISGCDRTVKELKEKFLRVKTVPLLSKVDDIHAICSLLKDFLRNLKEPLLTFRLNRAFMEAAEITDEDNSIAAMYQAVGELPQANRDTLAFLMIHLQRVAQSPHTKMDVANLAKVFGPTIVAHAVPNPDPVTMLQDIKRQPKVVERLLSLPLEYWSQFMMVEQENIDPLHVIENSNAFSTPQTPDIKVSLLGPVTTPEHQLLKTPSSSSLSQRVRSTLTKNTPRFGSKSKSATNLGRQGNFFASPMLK

[4] = target: T2, Kappa-type opioid receptor (Homo sapiens, UniProt P41145); format: functional
T2 sequence (P41145 whole entry): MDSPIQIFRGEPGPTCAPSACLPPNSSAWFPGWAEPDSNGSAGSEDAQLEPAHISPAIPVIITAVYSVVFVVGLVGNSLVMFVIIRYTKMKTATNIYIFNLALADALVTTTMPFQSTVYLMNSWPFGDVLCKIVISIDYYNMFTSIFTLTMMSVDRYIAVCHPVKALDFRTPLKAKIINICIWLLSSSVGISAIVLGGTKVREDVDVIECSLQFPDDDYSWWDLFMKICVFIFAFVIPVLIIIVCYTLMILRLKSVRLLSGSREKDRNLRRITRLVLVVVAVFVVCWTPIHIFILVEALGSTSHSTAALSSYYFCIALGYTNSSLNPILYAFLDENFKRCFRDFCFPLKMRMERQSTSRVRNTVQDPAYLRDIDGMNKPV

[5] = target: T2, Kappa-type opioid receptor; format: functional; remark: listed apart in the source
[6] = mitochondrial function rescue without frataxin homolog – Friedreich's ataxia, plus single-dose screen, dose response (AID 1465); format: functional;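 further: yeast depleted of Yfh1p frataxin homolog grown on glycerol needing respiration; WST-1 tetrazolium dye reduction as measure of cellular dehydrogenase metabolic activity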
[7] = target: Beta-galactosidase (Escherichia coli, UniProt Q8VNN2); format: functional
Sequence of Beta-galactosidase (Q8VNN2 whole entry, the tested form may be a part): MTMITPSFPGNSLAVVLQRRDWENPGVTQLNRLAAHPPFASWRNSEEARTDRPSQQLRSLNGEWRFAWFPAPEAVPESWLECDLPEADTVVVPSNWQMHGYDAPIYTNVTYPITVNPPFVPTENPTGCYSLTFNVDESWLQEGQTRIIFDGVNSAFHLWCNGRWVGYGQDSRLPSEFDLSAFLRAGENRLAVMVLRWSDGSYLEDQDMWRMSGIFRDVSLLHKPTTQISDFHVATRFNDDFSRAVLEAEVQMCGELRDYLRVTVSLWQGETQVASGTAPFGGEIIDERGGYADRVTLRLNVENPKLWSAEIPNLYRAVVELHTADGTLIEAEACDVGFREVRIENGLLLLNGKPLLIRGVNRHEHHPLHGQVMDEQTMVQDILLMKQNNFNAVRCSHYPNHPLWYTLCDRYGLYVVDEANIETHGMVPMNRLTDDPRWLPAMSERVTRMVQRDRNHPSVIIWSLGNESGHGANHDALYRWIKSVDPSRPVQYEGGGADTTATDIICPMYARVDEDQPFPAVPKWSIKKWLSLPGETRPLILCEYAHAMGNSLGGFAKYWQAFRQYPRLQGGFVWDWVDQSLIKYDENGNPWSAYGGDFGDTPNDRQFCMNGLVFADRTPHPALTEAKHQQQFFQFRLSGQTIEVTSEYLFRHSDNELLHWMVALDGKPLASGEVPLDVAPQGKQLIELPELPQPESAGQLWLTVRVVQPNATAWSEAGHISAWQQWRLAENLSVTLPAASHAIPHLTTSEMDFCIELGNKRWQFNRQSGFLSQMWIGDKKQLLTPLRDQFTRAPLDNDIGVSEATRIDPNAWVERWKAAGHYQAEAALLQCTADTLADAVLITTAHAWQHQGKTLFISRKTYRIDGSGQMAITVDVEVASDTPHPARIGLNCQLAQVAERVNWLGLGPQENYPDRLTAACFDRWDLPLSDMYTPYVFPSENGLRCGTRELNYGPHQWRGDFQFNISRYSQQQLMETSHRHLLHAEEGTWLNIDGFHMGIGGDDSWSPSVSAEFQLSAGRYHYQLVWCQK

[8] = target: T3, Estrogen receptor (Homo sapiens, UniProt P03372); experiment: ERα coactivator recruitment enhancers – biochemical, TR-FRET, ERα LBD, dose response (AID 737)
T3 sequence (P03372 whole entry): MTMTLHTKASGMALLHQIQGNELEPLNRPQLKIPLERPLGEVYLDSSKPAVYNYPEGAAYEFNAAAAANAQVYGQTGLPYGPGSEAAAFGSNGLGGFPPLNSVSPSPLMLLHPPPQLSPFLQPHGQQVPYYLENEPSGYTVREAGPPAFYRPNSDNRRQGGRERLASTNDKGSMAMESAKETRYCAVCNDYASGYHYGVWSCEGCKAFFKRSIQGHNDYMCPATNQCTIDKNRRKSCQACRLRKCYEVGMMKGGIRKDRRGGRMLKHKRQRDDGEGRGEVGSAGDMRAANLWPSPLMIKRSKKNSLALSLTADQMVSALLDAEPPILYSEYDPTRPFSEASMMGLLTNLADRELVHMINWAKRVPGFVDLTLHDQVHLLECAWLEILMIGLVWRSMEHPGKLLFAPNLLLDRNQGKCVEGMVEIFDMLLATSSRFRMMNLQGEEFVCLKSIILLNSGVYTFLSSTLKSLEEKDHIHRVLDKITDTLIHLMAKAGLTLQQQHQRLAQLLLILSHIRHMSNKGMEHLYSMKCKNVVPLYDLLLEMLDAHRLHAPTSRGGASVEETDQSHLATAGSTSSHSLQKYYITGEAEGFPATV

[9] = M. tuberculosis H37Rv growth inhibitors, H37Rv strain (AID 1626); format: functional
[10] = target: Mucolipin-3 (Homo sapiens, UniProt Q8TDD5); experiment: Dose response cell-based high-throughput screening assay for agonists of the transient receptor potential channel ML3 (TRPML3). [Related pubchem assays: 1526, 1424, 1448 ]; format: functional
Sequence of Mucolipin-3 (Q8TDD5 whole entry): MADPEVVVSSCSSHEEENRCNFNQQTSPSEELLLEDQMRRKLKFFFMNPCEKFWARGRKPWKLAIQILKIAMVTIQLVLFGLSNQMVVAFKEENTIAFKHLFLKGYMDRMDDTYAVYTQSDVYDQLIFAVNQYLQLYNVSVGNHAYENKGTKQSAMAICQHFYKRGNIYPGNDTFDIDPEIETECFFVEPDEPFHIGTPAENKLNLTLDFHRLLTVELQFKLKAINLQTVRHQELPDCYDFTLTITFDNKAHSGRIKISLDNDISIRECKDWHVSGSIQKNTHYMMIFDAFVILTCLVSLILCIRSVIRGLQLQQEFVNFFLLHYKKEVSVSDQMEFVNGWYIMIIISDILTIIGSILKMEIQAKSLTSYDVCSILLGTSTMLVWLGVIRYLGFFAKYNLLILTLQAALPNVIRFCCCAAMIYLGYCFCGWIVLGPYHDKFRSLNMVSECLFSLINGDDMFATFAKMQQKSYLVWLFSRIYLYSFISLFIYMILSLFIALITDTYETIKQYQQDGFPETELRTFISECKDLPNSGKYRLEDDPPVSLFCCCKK

[11] = target: Ion channel NompC (Danio rerio, UniProt Q7T1G6); experiment: Fluorescence counterscreen assay for TRPML3 agonists: dose response cell-based high-throughput screening assay to identify agonists of the transient receptor potential channel N1 (TRPN1). [Related pubchem assays: 1526, 1424, 1448 ]; format: functional
Sequence of Ion channel NompC (Q7T1G6 whole entry): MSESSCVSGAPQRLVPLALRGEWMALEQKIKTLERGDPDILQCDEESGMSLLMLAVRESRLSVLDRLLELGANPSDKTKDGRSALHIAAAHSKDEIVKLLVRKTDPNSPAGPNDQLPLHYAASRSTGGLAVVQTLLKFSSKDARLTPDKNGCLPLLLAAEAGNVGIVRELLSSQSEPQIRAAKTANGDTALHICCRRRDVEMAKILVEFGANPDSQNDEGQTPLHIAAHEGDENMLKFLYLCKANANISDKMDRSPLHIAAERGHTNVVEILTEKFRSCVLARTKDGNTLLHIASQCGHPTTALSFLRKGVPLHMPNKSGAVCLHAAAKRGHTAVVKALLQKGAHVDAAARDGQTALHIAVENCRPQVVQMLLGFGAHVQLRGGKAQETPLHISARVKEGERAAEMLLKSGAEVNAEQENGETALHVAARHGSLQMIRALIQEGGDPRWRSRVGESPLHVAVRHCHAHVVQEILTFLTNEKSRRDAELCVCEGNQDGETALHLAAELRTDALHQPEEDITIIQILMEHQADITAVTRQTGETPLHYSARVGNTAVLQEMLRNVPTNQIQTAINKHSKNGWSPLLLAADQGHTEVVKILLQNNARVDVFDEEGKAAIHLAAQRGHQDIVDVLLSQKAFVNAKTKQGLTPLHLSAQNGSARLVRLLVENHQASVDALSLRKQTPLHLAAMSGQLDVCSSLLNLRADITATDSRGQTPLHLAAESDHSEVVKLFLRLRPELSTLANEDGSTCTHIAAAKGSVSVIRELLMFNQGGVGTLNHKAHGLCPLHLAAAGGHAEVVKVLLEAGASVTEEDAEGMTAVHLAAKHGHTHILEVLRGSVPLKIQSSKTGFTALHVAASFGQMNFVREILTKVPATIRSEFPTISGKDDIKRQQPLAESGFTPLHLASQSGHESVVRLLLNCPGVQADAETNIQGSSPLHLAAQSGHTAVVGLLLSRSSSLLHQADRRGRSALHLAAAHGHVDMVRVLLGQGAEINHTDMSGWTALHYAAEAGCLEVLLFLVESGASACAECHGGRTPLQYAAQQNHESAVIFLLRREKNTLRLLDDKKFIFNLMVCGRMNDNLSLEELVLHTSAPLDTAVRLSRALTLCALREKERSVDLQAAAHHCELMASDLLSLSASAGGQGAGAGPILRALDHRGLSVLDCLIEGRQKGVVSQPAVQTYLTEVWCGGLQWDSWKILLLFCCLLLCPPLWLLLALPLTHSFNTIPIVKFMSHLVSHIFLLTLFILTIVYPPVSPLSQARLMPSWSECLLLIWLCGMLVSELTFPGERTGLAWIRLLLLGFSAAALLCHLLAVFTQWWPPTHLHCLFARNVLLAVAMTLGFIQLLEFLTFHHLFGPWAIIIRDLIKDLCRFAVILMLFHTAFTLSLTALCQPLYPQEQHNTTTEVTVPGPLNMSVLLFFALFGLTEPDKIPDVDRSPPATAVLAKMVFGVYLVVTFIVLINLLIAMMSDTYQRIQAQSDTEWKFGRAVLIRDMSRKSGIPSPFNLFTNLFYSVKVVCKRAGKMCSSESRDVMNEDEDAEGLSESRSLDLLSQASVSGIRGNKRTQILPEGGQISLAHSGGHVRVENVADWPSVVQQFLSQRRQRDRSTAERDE

[12] = system: INS1; experiment: INS-1E survival protection against cytokine death – cell-based, luminescence, retest, dose response (AID 449756); format: functional; settings: Rattus norvegicus;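 further: cell death triggered by IL-1 beta plus TNF-alpha plus IFN-gamma mixture; protective hits raise ATP signal compared with cytokine alone wells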
[13] = Luminescent dose response cell-based high throughput screening assay for inhibitors of the Janus kinase 2 mutant JAK2V617F. [Related pubchem assays: 1446 (Primary screen.), 1521 (Confirmation assay.), 1486 (Counter screen.)]; format: functional
[14] = antiviral protection against BTV-induced cell death – arbovirus, BSR cells, confirmation (AID 1250); format: functional;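 further: protection from viral cytopathic effect measured as cell viability by ATP luminescence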

In the case of `CC1=NN(c2ccccc2)C(=O)/C1=C/C=C/C=C/N(C)C`, the CC50 [1] is reported as 100 µM (active), the IC50 [2] is reported as 23.3 µM (inactive) and the IC50 [3] is reported as 68.1 µM (active). The IC50 [4] was 21.6 µM (inactive), the IC50 [5] was over 32 µM and the EC50 [6] was > 100 µM (active). The EC50 [7] was 14.8 µM (active).
For `CCc1nnc2sc(-c3ccc(NC(=O)c4ccc5c(c4)OCCO5)cc3)nn12`, the EC50 [8] was 32.2 µM (not active).
For `COc1ccc(NCN2C(=O)CCC2=O)cc1`, the IC50 [9] was > 100 µM (active).
In the case of `CSc1nc2ccccc2nc1N(C)S(=O)(=O)c1ccc(C)cc1`, the EC50 [10] is reported as > 29.9 µM (not active) and the EC50 [11] is reported as > 29.9 µM (not active).
In the case of `c1ccc2c(CN3CCCCCC3)c[nH]c2c1`, the AC50 [12] is reported as 4.09 µM (active) and the IC50 [13] is reported as 0.702 µM (active).
In the case of `Cc1ccc(C2C=C(c3ccc4c(c3)OCO4)Nc3ncnn32)cc1` (centres undefined), the IC50 [14] is reported as 38.9 µM (active).
